# Measured values from PMC2680961, “Homologous desensitization of signalling by the alpha (α) isoform of the human thromboxane A2 receptor: A specific role for nitric oxide signalling” (Biochimica et Biophysica Acta, 2007).
# Legend:
# TP^S145A,Δ328 = molecular target: T1, TP^S145A,Δ328 (Homo sapiens, UniProt P21731, S145A); assay: [3H]SQ29,548 radioligand binding, Scatchard analysis, HEK.TP^S145A,Δ328
# T1 construct: expressed in transfected cells
# T1 sequence (P21731 1-328 S145A): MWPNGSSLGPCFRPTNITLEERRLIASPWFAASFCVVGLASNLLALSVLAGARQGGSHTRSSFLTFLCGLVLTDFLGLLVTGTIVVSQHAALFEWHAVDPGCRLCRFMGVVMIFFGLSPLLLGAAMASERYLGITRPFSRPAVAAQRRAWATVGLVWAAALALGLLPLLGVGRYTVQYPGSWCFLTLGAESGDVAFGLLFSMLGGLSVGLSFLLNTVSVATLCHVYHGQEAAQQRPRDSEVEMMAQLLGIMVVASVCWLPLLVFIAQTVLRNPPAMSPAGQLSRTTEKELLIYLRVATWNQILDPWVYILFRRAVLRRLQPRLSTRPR
# Procedure: (§1) Cells were harvested by centrifugation at 500×g at 4 °C for 5 min and washed three times with ice-cold Ca^2+/Mg^2+-free phosphate-buffered saline (PBS). TP radioligand binding assays were carried out at 30 °C for 30 min in 100 μl reactions in the presence of 0–40 nM [^3H] […] Protein determinations were carried out using the Bradford assay.
# (§2) Radioligand binding and Scatchard analysis data were analysed using GraphPad Prisim V4.0 programme (GraphPad Software Inc., San Diego CA, USA). Statistical analyses were carried out using the unpaired Student's t test using the Statworks Analysis Package. p-values ≤ 0.01 indicated statistically significant differences.
# TPα^T337A = molecular target: T2, TPα^T337A (Homo sapiens, UniProt P21731, T337A); assay: [3H]SQ29,548 radioligand binding, Scatchard analysis, HEK.TPα^T337A
# T2 construct: expressed in transfected cells
# T2 sequence (P21731 1-343 T337A): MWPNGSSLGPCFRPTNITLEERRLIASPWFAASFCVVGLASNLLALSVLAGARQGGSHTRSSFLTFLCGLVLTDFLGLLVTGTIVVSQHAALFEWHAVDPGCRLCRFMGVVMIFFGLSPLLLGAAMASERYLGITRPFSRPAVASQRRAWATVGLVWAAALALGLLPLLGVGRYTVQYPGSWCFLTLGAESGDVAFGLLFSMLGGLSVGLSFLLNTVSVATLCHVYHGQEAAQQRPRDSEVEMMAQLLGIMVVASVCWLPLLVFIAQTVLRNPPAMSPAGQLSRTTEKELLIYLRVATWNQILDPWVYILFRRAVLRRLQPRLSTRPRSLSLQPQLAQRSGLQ
# Procedure: as §1, §2
# TPα^S331,340A = molecular target: T3, TPα^S331,340A (Homo sapiens, UniProt P21731, S331A/S340A); assay: Intracellular calcium mobilization, HEK.TPα^S331,340A cells; format: cell-based
# T3 construct: expressed in transfected cells
# T3 sequence (P21731 whole entry S331A/S340A): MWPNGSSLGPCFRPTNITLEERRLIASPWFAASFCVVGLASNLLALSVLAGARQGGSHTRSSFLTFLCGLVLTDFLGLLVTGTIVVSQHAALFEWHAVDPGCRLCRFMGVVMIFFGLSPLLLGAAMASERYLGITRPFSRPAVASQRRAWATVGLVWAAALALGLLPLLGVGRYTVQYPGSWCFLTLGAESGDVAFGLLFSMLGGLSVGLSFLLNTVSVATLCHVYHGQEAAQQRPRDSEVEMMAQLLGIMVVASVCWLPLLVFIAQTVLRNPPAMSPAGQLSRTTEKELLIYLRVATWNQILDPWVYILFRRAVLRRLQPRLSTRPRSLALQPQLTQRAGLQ
# Procedure: Measurement of intracellular calcium mobilization ([Ca^2+]i) in FURA2/AM preloaded HEK 293 cell lines (2 × 10^6 cells/dish), each transiently co-transfected with pADVA (10 μg), and pCMV:Gαq (25 μg), was carried out as previously described. To investigate the effect of GRK2/βARK1 on TP-mediated [Ca^2+]i mobilization, HEK.TPα or HEK.TPβ cells (2 × 10^6 cells/dish) were co-transfected with pADVA (10 μg), pCMV:Gαq (25 μg) along with pRK5:βARK1^495–689 (25 μg), encoding a dominant negative form of GRK2/βARK1[39]. […] For each measurement of [Ca^2+]i mobilization, aliquots of cells were diluted to 0.825 × 10^6 cells/ml in HBSSHB, 1 mM CaCl2 and FURA2 fluorescence was recorded (2 ml aliquots of cells) at 37^ °C with gentle stirring with a Perkin Elmer-Cetus LS50-B spectrofluorometer at excitation wavelengths of 340 nm and 380 nm and emission wavelength of 510 nm, respectively.
# Cells were stimulated with the TP agonist U46619 (1 μM) and changes in [Ca^2+]i mobilization were monitored as a function of time. […]
# The vehicle had no effect on U46619-mediated [Ca^2+]i mobilization. Calibration of the signal was performed in each sample by adding 0.2% Triton X-100 to obtain the maximal fluorescence ratio (Rmax) and then 1 mM EGTA to obtain the minimal fluorescence ratio (Rmin). […]
"Bmax (pmol/mg protein ± S.E.M.) (TP^S145A,Δ328) [pmol/mg protein]",Bmax (pmol/mg protein ± S.E.M.) (TPα^T337A) [pmol/mg protein],"Δ[Ca2+]i, U46619-induced (TPα^S331,340A; primary 1 μM U46619 4 min) [nM]","Δ[Ca2+]i, U46619-induced (TPα^S331,340A; secondary 1 μM U46619 at 15 min) [nM]",SMILES
3.83 ± 0.03,4.23 ± 0.04,,,"O=C(O)CCC/C=C\C[C@@H]1[C@H](CNNC(=O)Nc2ccccc2)[C@H]2CC[C@@H]1O2 [SQ29,548]"
,,160 ± 7.2,60 ± 10,CCCCC[C@H](O)/C=C/[C@@H]1[C@@H](C/C=C\CCCC(=O)O)[C@H]2CO[C@@H]1C2 [U46619]
